The text below walks through data of ChEMBL document CHEMBL1155486, “From 6-aminoquinolone antibacterials to 6-amino-7-thiopyranopyridinylquinolone ethyl esters as inhibitors of Staphylococcus aureus multidrug efflux pumps” (2010).

For test [1], the target named is T1, Quinolone resistance protein NorA (Staphylococcus aureus) (UniProt P0A0J7).
T1 sequence (whole entry): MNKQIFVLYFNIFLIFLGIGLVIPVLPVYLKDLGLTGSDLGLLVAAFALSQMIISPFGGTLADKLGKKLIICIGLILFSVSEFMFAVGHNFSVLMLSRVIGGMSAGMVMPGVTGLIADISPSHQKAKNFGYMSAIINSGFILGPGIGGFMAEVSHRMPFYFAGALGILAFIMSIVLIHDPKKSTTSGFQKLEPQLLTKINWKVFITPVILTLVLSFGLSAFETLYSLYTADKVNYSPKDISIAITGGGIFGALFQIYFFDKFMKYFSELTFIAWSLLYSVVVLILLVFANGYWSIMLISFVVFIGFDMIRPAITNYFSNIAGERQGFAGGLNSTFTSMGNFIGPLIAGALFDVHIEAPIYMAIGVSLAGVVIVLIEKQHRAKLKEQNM
Nature of the test: Inhibition of NorA in Staphylococcus aureus SA-1199B assessed as reduction in ethidium bromide efflux at 50 uM by fluorimetry. Also on record: scale not given: the % may be the effect or the level left.

The subject of test [2] is Staphylococcus aureus. Nature of the test: Antibacterial activity against Staphylococcus aureus SA-1199B by EtBr efflux assay. The format is functional.
Test [3] deals with Staphylococcus aureus. Nature of the test: Antibacterial activity against Staphylococcus aureus K1628 bearing S84L mutant GyrA and S80F mutant GrlA by microdilution technique. In kind it is functional. In general terms: Broth dilution looks for growth in wells or tubes with falling amounts of substance.
In test [4] the test system is Staphylococcus aureus. In words: Antibacterial activity against Staphylococcus aureus K1035 bearing wild-type GyrA and S80F mutant GrlA by microdilution technique. In kind it is functional.
Test [5] concerns Staphylococcus aureus. In words: Antibacterial activity against Staphylococcus aureus SA-K1904 bearing norA++ efficient mutation by microdilution technique. In kind it is functional.
For test [6], the system named is Staphylococcus aureus. Nature of the test: Antibacterial activity against Staphylococcus aureus K1134 bearing wild-type GyrA and S80Y mutant GrlA by microdilution technique. In kind it is functional.
Test [7] relates to Staphylococcus aureus. Nature of the test: Antibacterial activity against methicillin and ciprofloxacin-resistant Staphylococcus aureus 25A by microdilution technique. The format is functional.
Test [8] relates to Staphylococcus aureus. Nature of the test: Antibacterial activity against Staphylococcus aureus K1305 bearing wild-type GyrA and E84K mutant GrlA by microdilution technique. In kind it is functional.
In test [9] the test system is Staphylococcus aureus. In words: Antibacterial activity against Staphylococcus aureus ATCC 25923 by microdilution technique. In kind it is functional.
For test [10], the system named is Escherichia coli. Nature of the test: Antibacterial activity against Escherichia coli ATCC 25922 by microdilution technique. In kind it is functional.
The test system of test [11] is Staphylococcus aureus. In words: Antibacterial activity against Staphylococcus aureus SA-K1902 bearing norA- deficient mutation by microdilution technique. In kind it is functional.
Test [12] concerns Staphylococcus aureus. Nature of the test: Antibacterial activity against Staphylococcus aureus SA-1199B norA++ and A116E GrlA mutation by microdilution technique. The format is functional.
The test system of test [13] is Staphylococcus aureus. In words: Antibacterial activity against wild-type norA expressing Staphylococcus aureus SA-1199 by microdilution technique. The format is functional.
For test [14], the system named is Staphylococcus aureus. Nature of the test: Antibacterial activity against Staphylococcus aureus K1640 bearing S84L mutant GyrA and S80Y mutant GrlA by microdilution technique. The format is functional.

≈ marks a conversion by molar mass, not a printed value. A value given as a limit tells only on which side of the number the result lay.

In the case of `COC(=O)[C@H]1[C@H]2C[C@@H]3c4[nH]c5cc(OC)ccc5c4CCN3C[C@H]2C[C@@H](OC(=O)c2cc(OC)c(OC)c(OC)c2)[C@@H]1OC`, the Activity in test [1] was 84.8%.

For the molecule `CCOC(=O)c1cn(C2CC2)c2cc(N3CCC4=C(C3)C(=O)CCS4)c(N)cc2c1=O`, in test [1], the Activity was 35.7%. Besides, the MIC (usually the least concentration at which growth counts as inhibited) in test [2] is above 100 µg/mL.

Regarding `CCOC(=O)c1cn(C2CC2)c2c(C)c(N3CCC4=C(C3)C(=O)C(C)CS4)c(N)cc2c1=O` (configuration not stated), the Activity in [1] is 50.5%. In test [2], this molecule came in with an MIC above 100 µg/mL.

`CCOC(=O)c1cn(C2CC2)c2c(C)c(N3CCC4=C(C3)C(=O)CCS4)c(N)cc2c1=O`: the Activity in test [1] amounted to 36.8%. For the same molecule, the MIC in test [2] is above 100 µg/mL.

With `CCOC(=O)c1cn(C2CC2)c2cc(N3CCNCC3)c(F)cc2c1=O` [CIPROFLOXACIN ETHYL ESTER], the Activity in test [1] was 20.8%. Further, the MIC50 (usually the lowest concentration that inhibits either 50% of growth or 50% of the strains tested, depending on the study) in test [2] was above 100 µg/mL.

With `CC1CSC2=C(CN(c3cc4c(cc3F)c(=O)c(C(=O)O)cn4C3CC3)CC2)C1=O` (configuration not stated), the MIC in test [3] is above 10 µg/mL; in test [4], 1.25 µg/mL (≈ 2.92 µM); in test [5] it was 0.16 µg/mL (≈ 0.373 µM); in test [6] it was 1.25 µg/mL (≈ 2.92 µM); in test [7], 32 µg/mL (≈ 74.7 µM); in test [8] it was 1.25 µg/mL (≈ 2.92 µM). Further, the MIC in test [9] was 0.31 µg/mL (≈ 0.723 µM); in test [10], 8 µg/mL (≈ 18.7 µM); in [11], 0.16 µg/mL (≈ 0.373 µM); in test [12] it was 0.16 µg/mL (≈ 0.373 µM); in test [13] it was 0.08 µg/mL (≈ 0.187 µM); in test [14], above 10 µg/mL.

Take `CCOC(=O)c1cn(C2CC2)c2cc(N3CCC4=C(C3)C(=O)C(C)CS4)c(N)cc2c1=O` (configuration not stated): in [1], the Activity was found to be 63.5%. The molecule also registered a minimum inhibitory concentration (MIC) in [2] above 100 µg/mL.

Consider `CCOC(=O)c1cn(C2CC2)c2cc(N3CCC4=C(C3)C(O)CCS4)c(N)cc2c1=O` (configuration not stated), for which the Activity in test [1] was 26.3%. This molecule also displayed a minimal inhibitory concentration (MIC) in test [2] above 100 µg/mL.

In the case of `CCOC(=O)c1cn(C2CC2)c2c(C)c(N3CCC4=C(C3)C(O)CCS4)c(N)cc2c1=O` (configuration not stated), the Activity in test [1] was 47.3%. Moreover, in [2], the minimum inhibitory concentration (MIC) is above 100 µg/mL.
